Assay results published in patent publication US20220041606A1, “POSITIVE ALLOSTERIC MODULATORS OF THE MUSCARINIC ACETYLCHOLINE RECEPTOR M1” (Vanderbilt University, priority 2020, published 2022).

Legend:
human mAChR M1 [1] = biological target: T1, human mAChR M1 (Homo sapiens, UniProt P11229); assay: mAChR M1 cell-based functional assay (calcium mobilization), PAM activity: increase in the EC20 acetylcholine response; settings: CHO-K1 cells expressing hM1; potentiation of EC20 acetylcholine response
T1 construct: host or cells: CHO-K1 cells (ATCC), stably transfected using Lipofectamine2000
T1 sequence (P11229 1-460): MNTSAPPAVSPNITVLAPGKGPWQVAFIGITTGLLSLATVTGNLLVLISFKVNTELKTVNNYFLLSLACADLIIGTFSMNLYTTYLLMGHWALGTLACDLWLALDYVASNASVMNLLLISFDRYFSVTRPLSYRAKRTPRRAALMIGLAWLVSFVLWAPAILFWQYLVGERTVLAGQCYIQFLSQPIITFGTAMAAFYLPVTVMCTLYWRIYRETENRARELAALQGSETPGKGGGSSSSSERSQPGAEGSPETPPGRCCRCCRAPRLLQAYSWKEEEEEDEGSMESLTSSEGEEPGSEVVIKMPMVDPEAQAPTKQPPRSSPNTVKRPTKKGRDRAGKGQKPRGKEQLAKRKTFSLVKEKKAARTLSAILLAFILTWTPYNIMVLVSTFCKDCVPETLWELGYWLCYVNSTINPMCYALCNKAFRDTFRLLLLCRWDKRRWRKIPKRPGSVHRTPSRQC
Summary of the method: (§1)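 Fluorescence ratio calcium read-out (Fluo-4 AM, FDSS 6000) in human M1-expressing CHO-K1 cells. Agonist activity taken as concentration-dependent rise after compound addition; potentiation as enhancement of a subsequent EC20 acetylcholine challenge. Curves from 11-point threefold dilutions fitted by four-parameter logistic; Emax expressed versus acetylcholine maximum.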

human mAChR M1 [2] = biological target: T1, human mAChR M1; assay: mAChR M1 cell-based functional assay (calcium mobilization), agonist activity upon compound addition; settings: CHO-K1 cells expressing hM1; for EC50: compound alone, before acetylcholine addition; for Emax: relative to the maximum for acetylcholine
Summary of the method: as §1

Cn1nccc1-c1ccc(Cn2cc(C(=O)N[C@H]3CCCC[C@@H]3O)c3nccn3c2=O)c(F)c1 [Compound B32, 6-(2-fluoro-4-(1-methyl-1H-pyrazol-5-yl)benzyl)-N-((1S,2S)-2-hydroxycyclohexyl)-5-oxo-5,6-dihydroimidazo[1,2-c]pyrimidine-8-carboxamide]
EC50 (human mAChR M1 [1]): 890 nM | Emax (human mAChR M1 [1]): 80% | EC50 (human mAChR M1 [2]): > 10000 nM | Emax (human mAChR M1 [2]): < 5%

Cn1cc(-c2ccc(Cn3cc(C(=O)N[C@H]4CCOC[C@@H]4O)c4ncccc4c3=O)cn2)cn1 [Compound A15, N-((3R,4S)-3-hydroxytetrahydro-2H-pyran-4-yl)-6-((6-(1-methyl-1H-pyrazol-4-yl)pyridin-3-yl)methyl)-5-oxo-5,6-dihydro-1,6-naphthyridine-8-carboxamide]
EC50 (human mAChR M1 [1]): 1370 nM | Emax (human mAChR M1 [1]): 68% | Emax (human mAChR M1 [2]): 34%

Cn1ccc(-c2ccc(Cn3cc(C(=O)N[C@H]4CCC[C@@H]4O)c4ncccc4c3=O)c(F)c2)n1 [Compound A3, 6-(2-fluoro-4-(1-methyl-1H-pyrazol-3-yl)benzyl)-N-((1S,2S)-2-hydroxycyclopentyl)-5-oxo-5,6-dihydro-1,6-naphthyridine-8-carboxamide]
EC50 (human mAChR M1 [1]): 1660 nM | Emax (human mAChR M1 [1]): 83% | EC50 (human mAChR M1 [2]): > 10000 nM | Emax (human mAChR M1 [2]): < 5%

Cn1cc(-c2ccc(Cn3cc(C(=O)N[C@H]4CCCC[C@@H]4O)c4ncccc4c3=O)cn2)cn1 [Compound A16, N-((1S,2S)-2-hydroxycyclohexyl)-6-((6-(1-methyl-1H-pyrazol-4-yl)pyridin-3-yl)methyl)-5-oxo-5,6-dihydro-1,6-naphthyridine-8-carboxamide]
EC50 (human mAChR M1 [1]): 980 nM | Emax (human mAChR M1 [1]): 68% | Emax (human mAChR M1 [2]): 27%

Cn1ccc(-c2ccc(Cn3cc(C(=O)N[C@H]4CCC[C@@H]4O)c4ncn(C)c4c3=O)c(F)c2)n1 [Compound C2, 5-(2-fluoro-4-(1-methyl-1H-pyrazol-3-yl)benzyl)-N-((1S,2S)-2-hydroxycyclopentyl)-3-methyl-4-oxo-4,5-dihydro-3H-imidazo[4,5-c]pyridine-7-carboxamide]
EC50 (human mAChR M1 [1]): 600 nM | Emax (human mAChR M1 [1]): 45% | EC50 (human mAChR M1 [2]): > 10000 nM | Emax (human mAChR M1 [2]): < 5%

Cn1ccc(-c2ccc(Cn3cc(C(=O)N[C@H]4CCOC[C@@H]4O)c4sccc4c3=O)c(F)c2)n1 [Compound D26, 5-(2-fluoro-4-(1-methyl-1H-pyrazol-3-yl)benzyl)-N-((3R,4S)-3-hydroxytetrahydro-2H-pyran-4-yl)-4-oxo-4,5-dihydrothieno[3,2-c]pyridine-7-carboxamide]
EC50 (human mAChR M1 [1]): > 10000 nM | Emax (human mAChR M1 [1]): 34% | EC50 (human mAChR M1 [2]): > 10000 nM | Emax (human mAChR M1 [2]): < 5%

Cn1cc2c(-c3cc(F)c(Cn4cc(C(=O)N[C@H]5CCOC[C@@H]5O)c5nccnc5c4=O)c(F)c3)cccc2n1 [Compound A66, 6-(2,6-difluoro-4-(2-methyl-2H-indazol-4-yl)benzyl)-N-((3R,4S)-3-hydroxytetrahydro-2H-pyran-4-yl)-5-oxo-5,6-dihydropyrido[3,4-b]pyrazine-8-carboxamide]
EC50 (human mAChR M1 [1]): 280 nM | Emax (human mAChR M1 [1]): 72% | EC50 (human mAChR M1 [2]): 5000 nM | Emax (human mAChR M1 [2]): 46%

Cc1cn2c(=O)n(Cc3ccc(-n4cccn4)cc3)cc(C(=O)N[C@H]3CCCC[C@@H]3O)c2n1 [Compound B28, 6-(4-(1H-pyrazol-1-yl)benzyl)-N-((1S,2S)-2-hydroxycyclohexyl)-2-methyl-5-oxo-5,6-dihydroimidazo[1,2-c]pyrimidine-8-carboxamide]
EC50 (human mAChR M1 [1]): ≥ 10000 nM | Emax (human mAChR M1 [1]): 30% | EC50 (human mAChR M1 [2]): > 10000 nM | Emax (human mAChR M1 [2]): < 5%

Cn1cc2c(-c3cc(F)c(Cn4cc(C(=O)N[C@H]5CCCC[C@@H]5O)c5ncccc5c4=O)c(F)c3)cccc2n1 [Compound A22, 6-(2,6-difluoro-4-(2-methyl-2H-indazol-4-yl)benzyl)-N-((1S,2S)-2-hydroxycyclohexyl)-5-oxo-5,6-dihydro-1,6-naphthyridine-8-carboxamide]
EC50 (human mAChR M1 [1]): 52 nM | Emax (human mAChR M1 [1]): 67% | EC50 (human mAChR M1 [2]): > 10000 nM | Emax (human mAChR M1 [2]): < 5%

Cc1cc(-c2cc(F)c(Cn3cc(C(=O)N[C@H]4CCC[C@@H]4O)c4ncccc4c3=O)c(F)c2)ccn1 [Compound A38, 6-(2,6-difluoro-4-(2-methylpyridin-4-yl)benzyl)-N-((1S,2S)-2-hydroxycyclopentyl)-5-oxo-5,6-dihydro-1,6-naphthyridine-8-carboxamide]
EC50 (human mAChR M1 [1]): 570 nM | Emax (human mAChR M1 [1]): 25% | EC50 (human mAChR M1 [2]): > 10000 nM | Emax (human mAChR M1 [2]): < 5%

O=C(N[C@H]1CCCC[C@@H]1O)c1cn(Cc2ccc(-c3cscn3)cc2)c(=O)c2cccnc12 [Compound A59, N-((1S,2S)-2-hydroxycyclohexyl)-5-oxo-6-(4-(thiazol-4-yl)benzyl)-5,6-dihydro-1,6-naphthyridine-8-carboxamide]
EC50 (human mAChR M1 [1]): 420 nM | Emax (human mAChR M1 [1]): 45% | EC50 (human mAChR M1 [2]): > 10000 nM | Emax (human mAChR M1 [2]): < 5%

Cn1ccc(-c2ccc(Cn3cc(C(=O)N[C@H]4CCOC[C@@H]4O)c4occc4c3=O)c(F)c2)n1 [Compound D6, 5-(2-fluoro-4-(1-methyl-1H-pyrazol-3-yl)benzyl)-N-((3R,4S)-3-hydroxytetrahydro-2H-pyran-4-yl)-4-oxo-4,5-dihydrofuro[3,2-c]pyridine-7-carboxamide]
EC50 (human mAChR M1 [1]): > 10000 nM | Emax (human mAChR M1 [1]): 68% | EC50 (human mAChR M1 [2]): > 10000 nM | Emax (human mAChR M1 [2]): < 5%

Cn1ccc(-c2ccc(Cn3cc(C(=O)N[C@H]4CCCCC[C@@H]4O)c4occc4c3=O)c(F)c2)n1 [Compound D9, 5-(2-fluoro-4-(1-methyl-1H-pyrazol-3-yl)benzyl)-N-((1S,2S)-2-hydroxycycloheptyl)-4-oxo-4,5-dihydrofuro[3,2-c]pyridine-7-carboxamide]
EC50 (human mAChR M1 [1]): 3090 nM | Emax (human mAChR M1 [1]): 80% | EC50 (human mAChR M1 [2]): > 10000 nM | Emax (human mAChR M1 [2]): < 5%

Cn1cc(-c2ccc(Cn3cc(C(=O)N[C@H]4CCC[C@@H]4O)c4nccn4c3=O)c(F)c2)cn1 [Compound B7, 6-(2-fluoro-4-(1-methyl-1H-pyrazol-4-yl)benzyl)-N-((1S,2S)-2-hydroxycyclopentyl)-5-oxo-5,6-dihydroimidazo[1,2-c]pyrimidine-8-carboxamide]
EC50 (human mAChR M1 [1]): 240 nM | Emax (human mAChR M1 [1]): 73% | Emax (human mAChR M1 [2]): 48%

Cn1ccc(-c2ccc(Cn3cc(C(=O)N[C@H]4CCOC[C@@H]4O)c4ncccc4c3=O)c(F)c2)n1 [Compound A1, 6-(2-Fluoro-4-(1-methyl-1H-pyrazol-3-yl)benzyl)-N-((3R,4S)-3-hydroxytetrahydro-2H-pyran-4-yl)-5-oxo-5,6-dihydro-1,6-naphthyridine-8-carboxamide]
EC50 (human mAChR M1 [1]): 480 nM | Emax (human mAChR M1 [1]): 90% | EC50 (human mAChR M1 [2]): 7900 nM | Emax (human mAChR M1 [2]): 20%

Cn1nccc1-c1ccc(Cn2cc(C(=O)N[C@H]3CCOC[C@@H]3O)c3ncccc3c2=O)c(F)c1 [Compound A45, 6-(2-fluoro-4-(1-methyl-1H-pyrazol-5-yl)benzyl)-N-((3R,4S)-3-hydroxytetrahydro-2H-pyran-4-yl)-5-oxo-5,6-dihydro-1,6-naphthyridine-8-carboxamide]
EC50 (human mAChR M1 [1]): 4370 nM | Emax (human mAChR M1 [1]): 70% | EC50 (human mAChR M1 [2]): > 10000 nM | Emax (human mAChR M1 [2]): < 5%

Cn1cc2c(-c3cc(F)c(Cn4cc(C(=O)N[C@H]5CCOC[C@@H]5O)c5ncccc5c4=O)c(F)c3)cccc2n1 [Compound A21, 6-(2,6-difluoro-4-(2-methyl-2H-indazol-4-yl)benzyl)-N-((3R,4S)-3-hydroxytetrahydro-2H-pyran-4-yl)-5-oxo-5,6-dihydro-1,6-naphthyridine-8-carboxamide]
EC50 (human mAChR M1 [1]): 19 nM | Emax (human mAChR M1 [1]): 72% | EC50 (human mAChR M1 [2]): 1230 nM | Emax (human mAChR M1 [2]): 31%
